One data set deals with HBV. The experiment in a line: Anti-HBV activity: intracellular HBV DNA by real-time PCR in HepG2.117 cell line. To be noted: Hepatitis B virus, 72 h; HepG2.117 cells, 3 days of treatment, intracellular HBV DNA by real-time PCR, mean value; read-out: HBV-AVE-HepG2.117 EC50 (μM, mean value). The class given is cell-based, Hepatitis B virus. The essentials: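 HepG2.117 cells, a Tet-off inducible HBV-producing line, induced to replicate HBV and then treated with serially diluted compound. After 3 days, intracellular HBV DNA quantified by real-time PCR with HBV-specific primers and probe.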
On the technique in general: In qPCR the cycle at which signal appears reflects the starting amount.

Data set [1] can be described thus: Cytotoxicity in HepG2.117 cells, ATPlite Luminescence Assay. The class given is cell-based, human. To be noted: human, incubated for 3 days, mean value, read-out: TOX-HepG2.117 CC50 (μM, mean value). How it is done:
Cytotoxicity of the compounds was tested using HepG2 or HepG2.117 cells, incubated for 3 days in the presence of compounds. The viability of the cells was assessed using the PERKIN ELMER ATPlite Luminescence Assay System.”
On the technique in general: ATP-based viability assays read luminescence as a measure of living cells.

The term EC50 denotes the concentration needed to bring the measured effect to its halfway point. For orientation: CC50 means the concentration that lowers cell viability or growth by half.

On to `Cc1cc(CN2CCn3nc4c(c3C2=O)CN(C(=O)c2ccc(Cl)c(Cl)c2)[C@H](C)C4)nn1C` [Example C157], for which, in the data set on HBV, the 50% effective concentration (EC50) is 0.02 µM. For the same compound, the CC50 at 3 days in data set [1] was > 50 µM.
For the compound `Cc1nnc(CN2CCn3nc4c(c3C2=O)CN(C(=O)c2ccc(Cl)c(Cl)c2)[C@H](C)C4)n1C1CC1` [Example C158], the EC50 with HBV came to 2.38 µM. In data set [1], the CC50 at 3 days was > 50 µM.
On to `C[C@@H]1Cc2nn3c(c2CN1C(=O)c1ccc(Cl)c(Cl)c1)C(=O)N(Cc1ncccc1C(F)(F)F)CC3` [Example C159], for which the EC50 in the data set with HBV is 0.979 µM. The CC50 at 3 days in data set [1] amounted to 36 µM.
Regarding `Cc1ncc(CN2CCn3nc4c(c3C2=O)CN(C(=O)c2ccc(Cl)c(Cl)c2)[C@H](C)C4)s1` [Example C160], in the data set on HBV, the EC50 is 0.029 µM. Also, in data set [1], the CC50 at 3 days was > 50 µM.
The matching figures for `C[C@@H]1Cc2nn3c(c2CN1C(=O)c1ccc(Cl)c(Cl)c1)C(=O)N(Cc1cc(Cl)cc(C#N)c1)CC3` [Example C161]: 0.051 µM and > 50 µM.
In the case of `Cc1nc(CN2CCn3nc4c(c3C2=O)CN(C(=O)c2ccc(Cl)c(Cl)c2)[C@H](C)C4)cs1` [Example C162], in the data set on HBV, the EC50 came out at 0.082 µM. Moreover, in data set [1], the CC50 at 3 days was > 50 µM.
The like results for `COc1ccc(CN2CCn3nc4c(c3C2=O)CN(C(=O)c2ccc(Cl)c(Cl)c2)[C@H](C)C4)cc1C#N` [Example C163] were, in that order, 0.098 µM and > 50 µM.
The like results for `CC(C)Oc1ccc(CN2CCn3nc4c(c3C2=O)CN(C(=O)c2ccc(Cl)c(Cl)c2)[C@H](C)C4)cc1` [Example C164] were, in that order, 0.039 µM and 4.29 µM.
The like results for `C[C@@H]1Cc2nn3c(c2CN1C(=O)c1ccc(Cl)c(Cl)c1)C(=O)N(Cc1nnn(C)c1C(F)(F)F)CC3` [Example C165] were, in that order, 0.676 µM and > 50 µM.
As to `COc1cccc(F)c1CN1CCn2nc3c(c2C1=O)CN(C(=O)c1ccc(Cl)c(Cl)c1)[C@H](C)C3` [Example C166], the EC50 in the data set with HBV was 0.034 µM. In addition, the CC50 at 3 days in data set [1] worked out at 29.1 µM.
Take `C[C@@H]1Cc2nn3c(c2CN1C(=O)c1ccc(Cl)c(Cl)c1)C(=O)N(Cc1ccncc1C(F)F)CC3` [Example C167]: the EC50 in the data set with HBV came out at 0.277 µM. Further, the CC50 at 3 days in data set [1] is > 50 µM.
The matching figures for `COc1ccc(CN2CCn3nc4c(c3C2=O)CN(C(=O)c2ccc(Cl)c(Cl)c2)[C@H](C)C4)c(F)c1` [Example C168]: 0.046 µM and 6.11 µM.
The matching figures for `C[C@@H]1Cc2nn3c(c2CN1C(=O)c1ccc(Cl)c(Cl)c1)C(=O)N(Cc1ncoc1C(F)(F)F)CC3` [Example C169]: 0.831 µM and > 50 µM.
For the compound `C[C@@H]1Cc2nn3c(c2CN1C(=O)c1ccc(Cl)c(Cl)c1)C(=O)N(Cc1ccc(C#N)cc1C(F)(F)F)CC3` [Example C170], the EC50 in the data set on HBV worked out at 0.432 µM. The CC50 at 3 days in data set [1] is > 50 µM.
The matching figures for `C[C@@H]1Cc2nn3c(c2CN1C(=O)c1ccc(Cl)c(Cl)c1)C(=O)N(Cc1ccc(C(F)(F)F)nc1)CC3` [Example C171]: 0.082 µM and 15.3 µM.
`C[C@@H]1Cc2nn3c(c2CN1C(=O)c1ccc(Cl)c(Cl)c1)C(=O)N(Cc1coc(C(F)(F)F)n1)CC3` [Example C172]: the EC50 with HBV turned out to be 0.19 µM. Moreover, in data set [1], the CC50 at 3 days is > 50 µM.
Consider `Cc1cn(C)c(CN2CCn3nc4c(c3C2=O)CN(C(=O)c2ccc(Cl)c(Cl)c2)[C@H](C)C4)n1` [Example C173], for which the EC50 in the data set with HBV came out at 0.41 µM. Also, the CC50 at 3 days in data set [1] is > 50 µM.
`C[C@@H]1Cc2nn3c(c2CN1C(=O)c1ccc(Cl)c(Cl)c1)C(=O)N(Cc1ccccc1OC(F)(F)F)CC3` [Example C174]: the EC50 with HBV turned out to be 0.18 µM. Further, in data set [1], the CC50 at 3 days is 15.3 µM.
The like results for `C[C@@H]1Cc2nn3c(c2CN1C(=O)c1ccc(Cl)c(Cl)c1)C(=O)N(Cc1ccc(C#N)cc1F)CC3` [Example C175] were, in that order, 0.038 µM and 35.5 µM.

Source of the values: US20220348592A1, “FUSED HETEROCYCLIC DERIVATIVES” (Janssen Sciences Ireland Unlimited Company, priority 2019, published 2022).
